Patent US20040157772A1, “Use of a gatran for the manufacture of a medicament of the treatment of pulmonary fibrosis” (priority 2001, published 2004)

Tests used:
[1] = system: bleomycin-induced lung fibrosis; assay: Bleomycin-induced lung fibrosis model in rats, inogatran by constant i.v. infusion; type: in vivo, Sprague Dawley rats
Protocol: Forty male Sprague Dawley rats weighing 200 g were kept in cages (2 rats/cage) covered with filter tops to prevent spreading of carcinogenic metabolites of bleomycin. The rats had free access to food and water.
The rats were split into four groups:
Group 1—8 rats—received 0.9% NaCl (1 mL/kg) as a control (only 6 animals were ultimately used, the other 2 were used for different purposes).
Group 2—8 rats—received induction by way of an i.t. 2.5 mg/kg (1 mL/kg) bleomycin instillation (a 15 IE injection solution (Lundbeck)).
Group 3—12 rats—received bleomycin induction as above, plus a constant i.v. infusion of 0.9% NaCl solution (5.0 μL/h) (only 8 animals were ultimately used, the other 4 were used for different purposes).
(§1) Group 4—12 rats—received bleomycin induction as above, plus a constant i.v. infusion of inogatran (5 μmol/kg/h) loaded in Alzet® 2ML2 pumps at a concentration of 200 μmol/mL (88 mg/mL) in 0.9% NaCl (only 8 animals were ultimately used, the other 4 were used for different purposes).
The rats were anaesthetised by way of an i.p. injection (2 mL/kg) of Ketalar™ (50 mg/mL ketamin; Parke-Davis)/Rompun.vet™ (20 mg/mL xylazin; Bayer) (1.75 mL/0.35 mL). A pre-filled minipump connected to a PE60 catheter was inserted into the jugularis vein. A s.c. pocket was created on the back of the animal. The pump was led into this pocket. The incision on the neck was closed with wound clips.
The pre-filled pump with catheter was incubated in 37° C. 0.9% NaCl overnight before implantation to enable immediate pumping after surgery. This was to avoid clotting in the catheter.
After 14 days, all rats received an overdose of pentobarbital (i.p.). The rats were weighed and the lung was dissected and weighed. One lobe was placed in Histofix™ (buffered 5% formaldehyde solution) for histological examination. […]
The following parameters were measured: […]
Total collagen (quantification of hydroxyproline according to the procedure described in Stegemann-Stadler et al, Determinations of Hydroxyproline, Clin. Chim. Acta (1967) 18, 267-273).

[2] = Concentration of inogatran in plasma on day 6; type: in vivo; conditions: Sprague-Dawley, rat, iv, rats, constant i.v. infusion 5 μmol/kg/h from Alzet pumps, day 6 after implantation, approximately
Protocol: as §1
Plasma and bronchiolar lavage fluid (BAL) were collected from four rats in groups 3 and 4, and from two rats in group 1, six days after induction, for quantification of plasma concentration of compound and thrombin activity in BAL.
Concentration of inogatran in plasma on day 6.

In the case of `N=C(N)NCCCNC(=O)[C@@H]1CCCCN1C(=O)[C@@H](CC1CCCCC1)NCC(=O)O` [inogatran, HOOC—CH2-(R)Cha-Pic-Nag-H], the “hydroxyproline content in the lungs (total collagen)” value ([1]; bleomycin i.t. 2.5 mg/kg, constant i.v. infusion 5 μmol/kg/h, day 14, vehicle control 2.34±0.14, P=0.0008) was 1.37±0.10 μg/mg tissue, the “inhibition of collagen deposition” value ([1]; bleomycin-induced rats, constant i.v. infusion, day 14) was “almost complete inhibition” and the “effect on total lung weight (wet-weight)” value ([1]; bleomycin-induced rats, inogatran 4-5 μmol/kg/hr) was “no effect”. The concentration at 6 day [2] was 2 to 7 µM.
